For data set [1], the system named is Bone marrow-derived mast cells (BMMCs). As to the kind of experiment: Trypan blue positivity of treated mast cells. In kind it is cell-based, mouse.
Data set [2] concerns HEK293 cells. Nature of the data set: Cytotoxicity against HEK293 cells (PrestoBlue). Particulars: 0.01-10 μM for 48 h; much less than on mast cells. In kind it is cell-based, human.
The subject of data set [3] is mouse bone-marrow-derived mast cells (BMMCs). Nature of the data set: Annexin V/DRAQ7 cell death assessment in BMMCs. Format: cell-based. The method, then:
(§1) To assess cell death, cells were stained with Annexin V and either DRAQ7™ or Via-Probe™ Red Nucleic Acid Stain and analyzed by flow cytometry. To probe pH in acidic organelles, cells were incubated with LysoSensor Blue DND-167, followed by flow cytometry. The relative intracellular pH changes were assessed using the cell-permeable pH-sensitive fluorescent indicator (BCFL-AM). Intracellular calcium changes were assessed using Fluo-4/AM.
To analyze the mechanism by which monensin acts on mast cells, Annexin V/DRAQ7 staining was first adopted to assess the type of cell death induced by monensin, the gating is shown in FIG. 2A. […] Necrotic/late apoptotic (Annexin V^+/DRAQ7^+) cells were also seen, but to a lesser extent (right panel).
BMMCs were treated with 1 μM monensin for 12 and 24 h, followed by Annexin V/DRAQ7 staining to measure cell death. MCs were gated into cells having high and low maturity, as assessed by SSC analysis for granularity (A). The right panels depict the quantification of apoptotic (Annexin V^+/DRAQ7^−) and necrotic (Annexin V^+/DRAQ7^+) cell death in the respective populations (n=3). (B) BMMCs (0.5×10^6 cells) were developed from WT (FIG. 4B) or serglycin^−/− (SG^−/−) mice (data not shown) and were treated with monensin 0-10 μM for 24 h, followed by cell death assessment (Annexin V/DRAQ7 staining). BMMCs (C; 0.5×10^6 cells) or human skin MCs (0.1×10^6 cells; D) were treated with monensin or bafilomycin A 0-10 μM for 30 min, followed by staining with LysoSensor Blue DND-167 (a lysosome probe sensitive to decreased pH) (n=4). BMMCs (0.5×10^6 cells) were treated with either monensin or bafilomycin A (20 nM) alone or in combination (E), followed by measurement of cell death (Annexin V/DRAQ7 staining). (F) BMMCs were treated with monensin or bafilomycin A for 4 and 24 h, followed by assessment of cytosolic pH (n=2). […] To further assess the impact of the secretory granules on monensin-induced cell death, it was evaluated whether the absence of serglycin, a granule-restricted proteoglycan, affects the response to monensin. Both WT and serglycin^−/− BMMCs were sensitive to cell death induced by monensin.

The subject of data set [4] is mouse peritoneal cell-derived mast cells (PCMCs). Nature of the data set: Annexin V/DRAQ7 cell death assessment in PCMCs. Format: cell-based. Particulars: 24 h incubation. On the procedure:
as §1
To assess whether monensin also induces cell death of fully mature mast cells, mouse peritoneal cell-derived mast cells (PCMCs) were developed and their sensitivity to monensin was assessed. […] In fact, these mature mast cells were even more sensitive to monensin than were the BMMCs, with significant cell death seen at concentrations down to 10 nM (24 h incubation).

Data set [5] has as its system human skin MCs. Nature of the data set: Granule acidity, LysoSensor Blue DND-167 staining of human skin MCs. In kind it is cell-based. Particulars: 0-10 μM for 30 min. The method, then: as §1
(§2) BMMCs were treated with 1 μM monensin for 12 and 24 h, followed by Annexin V/DRAQ7 staining to measure cell death. MCs were gated into cells having high and low maturity, as assessed by SSC analysis for granularity (A). The right panels depict the quantification of apoptotic (Annexin V^+/DRAQ7^−) and necrotic (Annexin V^+/DRAQ7^+) cell death in the respective populations (n=3). (B) BMMCs (0.5×10^6 cells) were developed from WT (FIG. 4B) or serglycin^−/− (SG^−/−) mice (data not shown) and were treated with monensin 0-10 μM for 24 h, followed by cell death assessment (Annexin V/DRAQ7 staining). […] To further assess the impact of the secretory granules on monensin-induced cell death, it was evaluated whether the absence of serglycin, a granule-restricted proteoglycan, affects the response to monensin. […]

The subject of data set [6] is BMMCs. Nature of the data set: Cytosolic pH in BMMCs (BCFL-AM). Particulars: 4 and 24 h. In kind it is cell-based, mouse. The method, then: as §1, §2
The test system of data set [7] is mMCP-6. Nature of the data set: Translocation of granule protease mMCP-6 into the cytosolic fraction. In kind it is cell-based.
Data set [8] has as its system MCs. As to the kind of experiment: Intracellular calcium in MCs (Fluo-4/AM). Format: cell-based. The method, then: as §1
Background: A change in cytosolic calcium serves as a functional read-out for many receptors and channels.

Data set [9] relates to peritoneal MCs. As to the kind of experiment: Mouse peritoneal lavage cells, viability by flow cytometry: MCs. Format: cell-based. The note with it: 0-10 μM for 24 h. On the procedure: (§3) Mouse peritoneal cells were treated with monensin and stained with labeled antibodies against CD117 (2B8), FcεRI (MAR-1), Siglec-F (E50-2440), CD11b (M1/70), F4/80 (BM8), CD3 (17A2), CD4 (GK1.5), CD8b (eBioH35-17.2) and CD19 (ebuo1D3).
as §1
(§4) To this end, monensin was added to cells recovered by peritoneal lavage of mice, followed by flow cytometry analysis to assess the effects of monensin on the various cell populations of the peritoneum.
(§5) Peritoneal cell populations were recovered by peritoneal lavage of mice. The gating strategy to identify viable cells and to identify macrophages, lymphocytes, MCs and eosinophils within the peritoneal cell population is shown in (A). […] The panels show quantification of viable (Annexin V^−/Via-Probe^−) cells; in the MC (B), lymphocyte (C), macrophage (D) and eosinophil (E) populations (n=3).

Data set [10] concerns peritoneal lymphocytes. As to the kind of experiment: Mouse peritoneal lavage cells, viability by flow cytometry: lymphocytes. Format: cell-based. The note with it: 0-10 μM for 24 h. The method, then: as §3, §1, §4, §5
The test system of data set [11] is peritoneal eosinophils. Nature of the data set: Mouse peritoneal lavage cells, viability by flow cytometry: eosinophils. Format: cell-based. The note with it: 0-10 μM for 24 h. On the procedure:
as §3, §1, §4, §5

The test system of data set [12] is human eosinophils. Nature of the data set: Human peripheral blood-derived cells, viability: eosinophils. In kind it is cell-based. On the procedure: (§6) Mononuclear cells and granulocytes were purified from heparinized human peripheral blood. Cells were stained with antibodies against CD4 (RPA-T4), CD8 (RPA-T8), CD19 (HIB19) and CD14 (M5E2) or CCR3 (5E8) and CD15 (W6D3) for analysis of mononuclear cells and granulocytes, respectively.
as §1
(§7) To extend these findings into the corresponding human leukocyte populations, the inventors assessed the effects of monensin on eosinophils (B), human blood monocytes (C), lymphocytes (D), and neutrophils (E).

Data set [13] has as its system human lymphocytes. Nature of the data set: Human peripheral blood-derived cells, viability: lymphocytes. In kind it is cell-based. The method, then: as §6, §1, §7
For data set [14], the system named is mast cells populating the tracheal tissue. As to the kind of experiment: Histological analysis of tracheal segments (astra blue). Particulars: monensin-treated tracheal tissue. Further details: species or system guinea pig. On the procedure:
Double staining of control (D) and monensin-treated tracheal tissue (E, F) was performed with astra blue.

Data set [15] deals with Bone marrow-derived mast cells (BMMCs). The note with it: mouse.
The subject of data set [16] is Caspase 3 & 7. Nature of the data set: Caspase 3 & 7 activation in mast cells.
Data set [17] deals with Bone marrow-derived mast cells (BMMCs). Nature of the data set: BMMC viability, screening and kinetic analysis (Presto Blue / resazurin reduction). A general note: Alamar Blue is a resazurin reagent that responds to reducing activity.

Entries after “also recorded” stand apart in the source; their conditions may differ. Bounds are passed on as bounds.

As for `CC[C@]1([C@H]2O[C@H]([C@@H]3O[C@](O)(CO)[C@@H](C)C[C@H]3C)C[C@H]2C)CC[C@@H]([C@@]2(C)CC[C@@]3(C[C@@H](O)[C@H](C)[C@H]([C@H](C)[C@H](OC)[C@H](C)C(=O)O)O3)O2)O1` [Monensin, 4-[2-[5-ethyl-5-[5-[6-hydroxy-6-(hydroxymethyl)-3,5-dimethyl-oxan-2-yl]-3-methyl-oxolan-2-yl]oxolan-2-yl]-9-hydroxy-2,8-dimethyl-1,6-dioxaspiro[4.5]dec7-yl]-3-methoxy-2-methyl-pentanoic acid], the “Viability % (TB) (10 μM)” value in data set [1] is 12%. Further, the “Concentration from which a cytotoxic effect was exhibited, HEK293” value in data set [2] was at least 1000 nM. Besides, the “Type of cell death in serglycin−/− BMMCs” value in [3] (0-10 μM for 24 h, serglycin−/− BMMCs) is “predominantly Annexin V/DRAQ7 double-positive”. Besides, the “Sensitivity of mast cells with high granularity versus low granularity” value in data set [3] (1 μM, 12 and 24 h, SSC gating) was “markedly more sensitive”. Further, in data set [3] (WT BMMCs), the “Type of cell death in WT BMMCs (Annexin V/DRAQ7)” value is given as “predominantly Annexin V single positivity; also recorded: predominantly apoptotic cell death”. For the same compound, in data set [4], the “Concentrations with significant cell death in PCMCs (down to)” value is recorded as at least 10 nM. Further, in data set [5], the “LysoSensor Blue DND-167 staining, human skin MCs” value is reported as “marked reduction”. Also, in data set [6], the “Cytosolic pH” value is given as “significant drop”. Moreover, the “Translocation of mMCP-6 into the cytosolic fraction” value in data set [7] is reported as “profound translocation”. Further, in [8], the Cytosolic calcium result is “did not cause an increase”. The “Concentrations at which peritoneal MCs were extensively depleted (down to)” value in [9] is on record as at least 10 nM. In addition, the “Response of peritoneal lymphocytes” value in [10] is recorded as “resistant”. Also, the “Concentrations with substantial cell death of peritoneal eosinophils (down to)” value in [11] was at least 10 nM. In addition, the “Response of human eosinophils” value in data set [12] is listed as “sensitive”. Further, the “Viability of human lymphocytes” value in data set [13] is on record as “no reduction”. Besides, the “Proportion of mast cells having a defined nucleus” value in data set [14] is “profound reduction”. In data set [15] (1 µM), the “Viability % (1 μM)” value was 72%. Besides, in data set [15] (24 h, 10 µM), the “Viability % (10 μM)” value worked out at 66%. In addition, in [16], the “Caspase 3 & 7 activation” value is on record as “−” and the “Caspase-3 & 7 activation” value is recorded as “absence of a positive signal; also recorded: does not cause caspase-3 & 7 activations”. The “Selectivity of cytotoxic effect, mast cells versus HFL-1, HSAEC, HEK-293” value in data set [17] is “high and selective cytotoxic effect on mast cells”. Also, the “Potency against BMMCs compared with the other drugs” value in [17] (0.01-10 μM for 24, 48 or 72 h) is on record as “markedly more potent than any of the other three drugs”. Further, in data set [17] (0.01-10 μM for 24, 48 or 72 h, especially after prolonged (72 h) incubation), the “Concentrations showing considerable toxicity to BMMCs (down to)” value is reported as at least 10 nM.

The values are drawn from patent US20240226057A1, “NEW USE OF MONENSIN” (MAST PHARMA AB, priority 2021, published 2024).
